Patent publication US9285322B2, “pH modulation methods and systems for detecting binding events” (The Texas A&M University System, priority 2010, dated 2016)

Tests used:
calmodulin [1] = target: T1, calmodulin (Homo sapiens, UniProt P0DP23); conditions: 1 M CaCl2, 66 μM dye-conjugated calmodulin, 10 mM Tris, 100 mM NaCl, pH 7.4
calmodulin [2] = target: T1, calmodulin; conditions: read-out: equilibrium dissociation constant; cited from earlier work
avidin [3] = target: T2, avidin (Gallus gallus, UniProt P02701); assay: homogeneous biotin detection with ortho-TEXAS RED-conjugated avidin in microfluidic channels; assay type: binding; conditions: 200 μM biotin, 10 μM ortho-TEXAS RED-conjugated avidin, PBS, pH 8.2
different kinases = conditions: cited from earlier work
[4] = target: biotinylated bovine serum albumin (bovine) (UniProt P02769); assay: homogeneous pH modulation fluorescence assay in two parallel microfluidic channels; 3 uM labeled avidin, 500 nM biotinylated BSA, 150 mM NaCl, 10 mM PBS, pH 7.0
avidin [5] = target: T2, avidin; assay: protein-protein interaction assay: labeled avidin with biotinylated BSA in two parallel microfluidic channels; assay type: binding

T2 sequence (P02701 25-152): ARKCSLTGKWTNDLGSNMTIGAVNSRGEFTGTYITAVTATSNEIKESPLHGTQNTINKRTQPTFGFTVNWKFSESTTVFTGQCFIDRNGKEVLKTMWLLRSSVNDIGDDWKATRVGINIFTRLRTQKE
biotinylated bovine serum albumin (bovine), sequence (P02769 25-607 limits assumed): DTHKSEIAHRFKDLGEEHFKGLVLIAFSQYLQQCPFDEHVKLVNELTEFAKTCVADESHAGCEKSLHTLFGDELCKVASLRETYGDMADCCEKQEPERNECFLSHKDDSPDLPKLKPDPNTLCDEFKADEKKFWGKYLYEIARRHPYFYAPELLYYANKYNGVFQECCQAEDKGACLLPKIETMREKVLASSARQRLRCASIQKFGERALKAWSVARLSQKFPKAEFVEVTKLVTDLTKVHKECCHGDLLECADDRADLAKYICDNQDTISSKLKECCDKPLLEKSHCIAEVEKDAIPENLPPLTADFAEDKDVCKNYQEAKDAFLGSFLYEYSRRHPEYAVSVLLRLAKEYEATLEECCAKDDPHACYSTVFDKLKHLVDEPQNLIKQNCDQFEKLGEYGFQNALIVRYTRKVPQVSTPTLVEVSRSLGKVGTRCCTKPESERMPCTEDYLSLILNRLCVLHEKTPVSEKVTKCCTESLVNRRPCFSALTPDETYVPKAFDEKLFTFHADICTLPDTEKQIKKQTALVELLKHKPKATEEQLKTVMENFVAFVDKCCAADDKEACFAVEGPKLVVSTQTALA

For `[Ca+2].[Cl-].[Cl-]` [Ca^2+, calcium chloride], the “attenuation in fluorescence intensity (factor) when Ca2+ is present” value (calmodulin [1]) is given as “two” and the Kd (calmodulin [2]) is given as 14 µM.

For `O=C(O)CCCC[C@@H]1SC[C@@H]2NC(=O)N[C@@H]21` [biotin], the “fluorescence intensity increase (factor) when biotin was present” value (avidin [3]) was “six”.

For `Nc1ncnc2c1ncn2[C@@H]1O[C@H](COP(=O)(O)OP(=O)(O)OP(=O)(O)O)[C@@H](O)[C@H]1O` [ATP, adenosine triphosphate], the “affinities of different kinases for ATP” value (different kinases) is given as “tens of nanomolar to hundreds of micromolar”.

For “ortho-TEXAS RED succinimidyl ester labeled avidin (from UniProt P02701 25-152)”, the fluorescence intensity with biotinylated BSA relative to the channel without it [4] was 8 fold.

For “para-sulforhodamine 101 [para-TEXAS RED®]”, the “fluorescence difference between channels with and without biotinylated BSA, control dye” value (avidin [5]; control with para-TEXAS RED under identical conditions (500 nM biotinylated BSA, pH 7.0)) was “no difference between the two channels”.

For “biotinylated BSA: biotinylated bovine serum albumin”, the “signal in channel with biotinylated BSA relative to channel without (times brighter)” value (avidin [5]; 500 nM biotinylated BSA, 3 μM ortho-TEXAS RED succinimidyl ester labeled avidin, 150 mM NaCl, 10 mM PBS, pH 7.0) was “approximately eight”.
